Measurements published in patent US8524726B2, “Amido derivatives and their use as positive allosteric modulators of metabotropic glutamate receptors” (Addex Pharma, SA, priority 2007, dated 2013).

Tests used:
[1] = biological target: T1, recombinant human mGluR4a receptors (Homo sapiens, UniProt Q14833); test: Fluorescent cell based Ca2+ mobilization assay (FLIPR) on HEK-293 cells expressing human mGluR4; conditions: HEK-293 cells expressing hmGluR4, Fluo-4, potentiation of EC25 glutamate; mean of at least three independent experiments in duplicate; read-out: Ca2+ Flux (mean EC50)
T1 construct: expressed in transfected cells
T1 sequence (Q14833 33-912): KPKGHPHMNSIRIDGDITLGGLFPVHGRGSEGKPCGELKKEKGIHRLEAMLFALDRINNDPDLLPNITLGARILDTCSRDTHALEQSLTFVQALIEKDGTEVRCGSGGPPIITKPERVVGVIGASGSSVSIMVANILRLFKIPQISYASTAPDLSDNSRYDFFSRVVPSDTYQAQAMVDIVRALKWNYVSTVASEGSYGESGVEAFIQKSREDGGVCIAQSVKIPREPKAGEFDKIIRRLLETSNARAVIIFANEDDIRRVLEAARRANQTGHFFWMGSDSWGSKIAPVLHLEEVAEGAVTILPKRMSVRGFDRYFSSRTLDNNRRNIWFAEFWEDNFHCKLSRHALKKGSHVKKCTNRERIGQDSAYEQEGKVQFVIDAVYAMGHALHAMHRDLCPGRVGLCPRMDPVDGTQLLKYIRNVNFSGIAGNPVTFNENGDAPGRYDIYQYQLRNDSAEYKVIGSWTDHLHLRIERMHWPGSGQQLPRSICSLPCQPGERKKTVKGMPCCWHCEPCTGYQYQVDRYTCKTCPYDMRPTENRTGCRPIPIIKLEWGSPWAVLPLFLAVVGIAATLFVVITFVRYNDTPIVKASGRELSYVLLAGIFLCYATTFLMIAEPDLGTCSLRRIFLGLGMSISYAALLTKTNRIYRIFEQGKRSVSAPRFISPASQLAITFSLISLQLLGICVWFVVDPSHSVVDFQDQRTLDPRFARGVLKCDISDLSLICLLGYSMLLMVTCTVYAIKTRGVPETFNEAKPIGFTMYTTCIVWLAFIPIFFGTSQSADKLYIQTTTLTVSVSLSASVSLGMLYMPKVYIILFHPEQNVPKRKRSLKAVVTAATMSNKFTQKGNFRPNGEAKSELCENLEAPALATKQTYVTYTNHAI
Text: mGluR4 Assay on HEK-Expressing Human mGluR4
Their activity was examined on recombinant human mGluR4a receptors by detecting changes in intracellular Ca^2+ concentration, using the fluorescent Ca^2+-sensitive dye Fluo-4-(AM) and a Fluorometric Imaging Plate Reader (FLIPR, Molecular Devices, Sunnyvale, Calif.)
Transfection and Cell Culture
The cDNA encoding the human metabotropic glutamate receptor (hmGluR4), (accession number NM_000841.1, NCBI Nucleotide database browser), was subcloned into an expression vector containing also the hygromycin resistance gene. In parallel, the cDNA encoding a G protein allowing redirection of the activation signal to intracellular calcium flux was subcloned into a different expression vector containing also the puromycin resistance gene. […] Positive cellular clones expressing hmGluR4 were identified in a functional assay measuring changes in calcium fluxes in response to glutamate or selective known mGluR4 orthosteric agonists and antagonists
HEK-293 cells expressing hmGluR4 were maintained in media containing DMEM, dialyzed Fetal Calf Serum (10%), Glutamax™ (2 mM), Penicillin (100 units/ml), Streptomycin (100 μg/ml), Geneticin (100 μg/ml) and Hygromycin-B (40 μg/ml) and puromycin (1 μg/ml) at 37° C./5% CO2.
Fluorescent Cell Based-Ca^2+ Mobilization Assay
Human mGluR4 HEK-293 cells were plated out 24 hours prior to FLIPR^384 assay in black-walled, clear-bottomed, poly-L-ornithine-coated 384-well plates at a density of 25,000 cells/well in a glutamine/glutamate free DMEM medium containing foetal bovine serum (10%), penicillin (100 units/ml) and streptomycin (100 μg/ml) at 37° C./5% CO2.
On the day of the assay, the medium was aspirated and the cells were loaded with a 3 μM solution of Fluo-4-AM (LuBioScience, Lucerne, Switzerland) in 0.03% pluronic acid. After 1 hour at 37° C./5% CO2, the non incorporated dye was removed by washing cell plate with the assay buffer and the cells were left in the dark at room temperature for six hours before testing. All assays were performed in a pH 7.4 buffered-solution containing 20 mM HEPES, 143 mM NaCl, 6 mM KCl, 1 mM MgSO4, 1 mM CaCl2, 0.125 mM sulfapyrazone, 0.1% glucose.
After 10 s of basal fluorescence recording, various concentrations of the compounds of the invention were added to the cells. Changes in fluorescence levels were first monitored for 180 s in order to detect any agonist activity of the compounds. Then the cells were stimulated by an EC25 glutamate concentration for an additional 110 s in order to measure enhancing activities of the compounds of the invention. EC25 glutamate concentration is the concentration giving 25% of the maximal glutamate response.
The concentration-response curves of representative compounds of the present invention were generated using the Prism GraphPad software (Graph Pad Inc, San Diego, USA). The curves were fitted to a four-parameter logistic equation: (Y=Bottom+(Top-Bottom)/(1+10^((Log EC50−X)*Hill Slope) allowing determination of EC50 values.

SMILES	EC50 [1]	melting point
O=C(Nc1cccc(Cl)c1)c1cccs1 [Compound 1-2, N-(3-Chlorophenyl)thiophene-2-carboxamide]	1000 to 10000 nM	139 to 140 °C
O=C(Nc1cccc(Cl)c1)c1ccccn1 [Compound 1-3, N-(3-Chlorophenyl)picolinamide]	< 1000 nM	–
O=C(Nc1cccc(F)c1)c1ccccn1 [Compound 1-4, N-(3-Fluorophenyl)picolinamide]	–	74 to 75 °C
O=C(Nc1cccc(Cl)c1)c1ccc[nH]1 [Compound 1-5, N-(3-Chlorophenyl)-1H-pyrrole-2-carboxamide]	1000 to 10000 nM	138 to 140 °C
O=C(COc1cccc(NC(=O)c2ccco2)c1)c1ccc(F)cc1 [Compound 2-2, Furan-2-carboxylic acid {3-[2-(4-fluoro-phenyl)-2-oxo-ethoxy]-phenyl}-amide]	–	148 to 149 °C
COc1cccc(NC(=O)c2csc(C)n2)c1 [Compound 2-4, N-(3-Methoxyphenyl)-2-methylthiazole-4-carboxamide]	1000 to 10000 nM	87 to 89 °C
COc1cccc(NC(=O)c2nccs2)c1 [Compound 2-5, N-(3-Methoxyphenyl)thiazole-2-carboxamide]	1000 to 10000 nM	53 to 57 °C
O=C(COc1cccc(NC(=O)c2ccccn2)c1)c1cccc(Cl)c1 [Compound 2-7, N-(3-(2-(3-Chlorophenyl)-2-oxoethoxy)phenyl)picolinamide]	1000 to 10000 nM	139 to 140 °C
O=C(Nc1cccc(OCCCc2ccccc2)c1)c1ccccn1 [Compound 2-8, N-(3-(3-Phenylpropoxy)phenyl)picolinamide]	1000 to 10000 nM	49 to 51 °C
COc1ccccc1C(=O)COc1cccc(NC(=O)c2ccccn2)c1 [Compound 2-9, N-(3-(2-(2-Methoxyphenyl)-2-oxoethoxy)phenyl)picolinamide]	1000 to 10000 nM	136 to 137 °C
COc1cccc(C(=O)COc2cccc(NC(=O)c3ccccn3)c2)c1 [Compound 2-10, N-(3-(2-(3-Methoxyphenyl)-2-oxoethoxy)phenyl)picolinamide]	1000 to 10000 nM	114.5 to 115.5 °C
O=C(COc1cccc(NC(=O)c2ccccn2)c1)c1cccc(F)c1 [Compound 2-11, N-(3-(2-(3-Fluorophenyl)-2-oxoethoxy)phenyl)picolinamide]	1000 to 10000 nM	118 to 121 °C
O=C(Nc1cccc(OCC(=O)c2ccccc2Cl)c1)c1ccccn1 [Compound 2-12, N-(3-(2-(2-Chlorophenyl)-2-oxoethoxy)phenyl)picolinamide]	1000 to 10000 nM	–
COc1cccc(NC(=O)c2cc(C)on2)c1 [Compound 2-13, N-(3-Methoxyphenyl)-5-methylisoxazole-3-carboxamide]	1000 to 10000 nM	98 to 101 °C
COc1cc(NC(=O)c2ccccn2)ccc1F [Compound 2-14, N-(4-Fluoro-3-methoxyphenyl)picolinamide]	< 1000 nM	–
O=C(Nc1cccc(OCC(=O)c2ccccc2F)c1)c1ccccn1 [Compound 2-15, N-(3-(2-(2-Fluorophenyl)-2-oxoethoxy)phenyl)picolinamide]	1000 to 10000 nM	98 to 101 °C
COc1cccc(NC(=O)c2ccncn2)c1 [Compound 2-16, N-(3-Methoxyphenyl)pyrimidine-4-carboxamide]	1000 to 10000 nM	119 to 122 °C
COc1cc(NC(=O)c2cccc(F)n2)ccc1F [Compound 2-17, 6-Fluoro-N-(4-fluoro-3-methoxyphenyl)picolinamide]	1000 to 10000 nM	124 to 125 °C
COc1cc(NC(=O)c2nccs2)ccc1F [Compound 2-18, N-(4-Fluoro-3-methoxyphenyl)thiazole-2-carboxamide]	1000 to 10000 nM	103 to 105 °C

Continued, values first:

EC50 [1]	melting point	SMILES
< 1000 nM	195 to 197 °C	O=C(Nc1ccc(Oc2ncccn2)c(Cl)c1)c1ccccn1 [Compound 3-2, N-(3-Chloro-4-(pyrimidin-2-yloxy)phenyl)picolinamide]
–	142 to 150 °C	Cc1nc(C(=O)Nc2ccc(Oc3ncccn3)c(Cl)c2)cs1 [Compound 3-3, N-(3-Chloro-4-(pyrimidin-2-yloxy)phenyl)-2-methylthiazole-4-carboxamide]
1000 to 10000 nM	154 °C	O=C(Nc1ccc(Oc2ncccn2)c(Cl)c1)c1nccs1 [Compound 3-4, N-(3-Chloro-4-(pyrimidin-2-yloxy)phenyl)thiazole-2-carboxamide]
< 1000 nM	254 to 260 °C	O=C(Nc1ccc(Oc2ccccn2)c(Cl)c1)c1ccccn1 [Compound 3-5, N-(3-Chloro-4-(pyridin-2-yloxy)phenyl)picolinamide]
–	102 to 104 °C	O=C(Nc1ccc(Oc2cc(F)ccc2F)c(Cl)c1)c1ccccn1 [Compound 3-6, N-(3-Chloro-4-(2,5-difluorophenoxy)phenyl)picolinamide]
1000 to 10000 nM	92 to 94 °C	O=C(Nc1ccc(Oc2ccc(C(F)(F)F)cn2)c(Cl)c1)c1ccccn1 [Compound 3-8, N-(3-Chloro-4-(5-(trifluoromethyl)pyridin-2-yloxy)phenyl)picolinamide]
–	203 to 205 °C	COc1cc(NC(=O)c2ccccn2)ccc1Oc1ncccn1 [Compound 3-9, N-(3-Methoxy-4-(pyrimidin-2-yloxy)phenyl)picolinamide]
–	78 to 80 °C	O=C(Nc1ccc(Oc2cccc(F)c2)c(Cl)c1)c1ccccn1 [Compound 3-12, N-(3-Chloro-4-(3-fluorophenoxy)phenyl)picolinamide]
–	104 to 105 °C	O=C(Nc1ccc(Oc2ccc(F)cc2)c(Cl)c1)c1ccccn1 [Compound 3-13, N-(3-Chloro-4-(4-fluorophenoxy)phenyl)picolinamide]
< 1000 nM	157 to 159 °C	N#Cc1ccc(Oc2ccc(NC(=O)c3ccccn3)cc2Cl)cc1 [Compound 3-15, N-(3-Chloro-4-(4-cyanophenoxy)phenyl)picolinamide]
–	223 to 228 °C	N#Cc1cccnc1Oc1ccc(NC(=O)c2ccccn2)cc1Cl [Compound 3-16, N-(3-Chloro-4-(3-cyanopyridin-2-yloxy)phenyl)picolinamide]
–	156 to 158 °C	CC(C)C(=O)N1CCN(c2ccc(NC(=O)c3ccccn3)cc2Cl)CC1 [Compound 4-2, N-(3-Chloro-4-(4-isobutyrylpiperazin-1-yl)phenyl)picolinamide]
1000 to 10000 nM	176 to 179 °C	CCC(=O)N1CCN(c2ccc(NC(=O)c3ccccn3)cc2Cl)CC1 [Compound 4-3, N-(3-Chloro-4-(4-propionylpiperazin-1-yl)phenyl)picolinamide]
1000 to 10000 nM	161 to 163 °C	O=C(Nc1ccc(N2CCN(C(=O)c3ccccc3)CC2)c(Cl)c1)c1ccccn1 [Compound 4-4, N-(4-(4-Benzoylpiperazin-1-yl)-3-chlorophenyl)picolinamide]
1000 to 10000 nM	92 to 94 °C	O=C(Nc1ccc(N2CCN(Cc3ccccc3)CC2)c(Cl)c1)c1ccccn1 [Compound 4-5, N-(4-(4-Benzylpiperazin-1-yl)-3-chlorophenyl)picolinamide]
